Assay results published in PubChem BioAssay AID602339 (The Scripps Research Institute Molecular Screening Center, 2012).
The source made the active and inactive calls. No rule for the calls is given here.

Experiments:
Experiment in all cases: off-target hydrolase engagement by SILAC proteomics – cell-based, ABPP-SILAC, LC-MS, selectivity assay for DAGLb inhibitor project, late-stage follow-up (AID 602339)
[1] = test system: Abhd11; conditions: mouse cells, active compounds read low
[2] = test system: Abhd12; conditions: mouse cells, active compounds read low
[3] = molecular target: Abhd4 (UniProt Q8VD66); conditions: mouse cells, active compounds read low
[4] = test system: Ache; conditions: mouse cells, active compounds read low
[5] = test system: Acot2; conditions: mouse cells, active compounds read low
[6] = molecular target: Acyl-protein thioesterase 1 (Mus musculus) (UniProt P97823); conditions: mouse cells, Lypla1, active compounds read low
[7] = test system: Apeh; conditions: mouse cells, active compounds read low
[8] = test system: Bat5; conditions: mouse cells, active compounds read low
[9] = test system: Ctsa; conditions: mouse cells, active compounds read low
[10] = test system: D230012E17Rik; conditions: mouse cells, active compounds read low
[11] = test system: Ddhd1; conditions: mouse cells, active compounds read low
[12] = molecular target: Diacylglycerol lipase-beta (Mus musculus) (UniProt Q91WC9); conditions: mouse cells, Daglb, active compounds read low
[13] = test system: Dpp7; conditions: mouse cells, active compounds read low
[14] = test system: Dpp9; conditions: mouse cells, active compounds read low
[15] = test system: Esd; conditions: mouse cells, active compounds read low
[16] = test system: Faah; conditions: mouse cells, active compounds read low
[17] = test system: Fam108b; conditions: mouse cells, active compounds read low
[18] = test system: Fam108c; conditions: mouse cells, active compounds read low
[19] = test system: Fasn; conditions: mouse cells, active compounds read low
[20] = test system: Htra2; conditions: mouse cells, active compounds read low
[21] = test system: Iah1; conditions: mouse cells, active compounds read low
[22] = test system: Kiaa1363; conditions: mouse cells, active compounds read low
[23] = test system: Lactb; conditions: mouse cells, active compounds read low
[24] = test system: Lipe; conditions: mouse cells, active compounds read low
[25] = test system: Lonp1; conditions: mouse cells, active compounds read low
[26] = test system: Lypla2; conditions: mouse cells, active compounds read low
[27] = test system: Lypla3; conditions: mouse cells, active compounds read low
[28] = test system: Lyplal1; conditions: mouse cells, active compounds read low
[29] = molecular target: Monoacylglycerol lipase ABHD6 (Mus musculus) (UniProt Q8R2Y0); conditions: mouse cells, active compounds read low
[30] = test system: Pafah1b2; conditions: mouse cells, active compounds read low
[31] = test system: Pafah1b3; conditions: mouse cells, active compounds read low
[32] = molecular target: Palmitoyl-protein thioesterase ABHD10, mitochondrial (Mus musculus) (UniProt Q6PE15); conditions: mouse cells, active compounds read low
[33] = test system: Parl; conditions: mouse cells, active compounds read low
[34] = molecular target: Platelet-activating factor acetylhydrolase 2, cytoplasmic (Mus musculus) (UniProt Q8VDG7); conditions: mouse cells, Pafah2, active compounds read low
[35] = test system: Plat; conditions: mouse cells, active compounds read low
[36] = test system: Pme1; conditions: mouse cells, active compounds read low
[37] = test system: Pnpla6; conditions: mouse cells, active compounds read low
[38] = test system: Pnpla7; conditions: mouse cells, active compounds read low
[39] = test system: Pnpla8; conditions: mouse cells, active compounds read low
[40] = test system: Ppt2; conditions: mouse cells, active compounds read low
[41] = test system: Prepl; conditions: mouse cells, active compounds read low
[42] = molecular target: Prolyl endopeptidase (Mus musculus) (UniProt Q9QUR6); conditions: mouse cells, Prep, active compounds read low
[43] = test system: Qrsl1; conditions: mouse cells, active compounds read low
[44] = test system: Scpep1; conditions: mouse cells, active compounds read low
[45] = test system: Serhl; conditions: mouse cells, active compounds read low
[46] = test system: Tpp2; conditions: mouse cells, active compounds read low

Measured: SILAC ratio (treated/control probe labeling)

Sequence of Diacylglycerol lipase-beta (Mus musculus) (Q91WC9 whole entry, looked up): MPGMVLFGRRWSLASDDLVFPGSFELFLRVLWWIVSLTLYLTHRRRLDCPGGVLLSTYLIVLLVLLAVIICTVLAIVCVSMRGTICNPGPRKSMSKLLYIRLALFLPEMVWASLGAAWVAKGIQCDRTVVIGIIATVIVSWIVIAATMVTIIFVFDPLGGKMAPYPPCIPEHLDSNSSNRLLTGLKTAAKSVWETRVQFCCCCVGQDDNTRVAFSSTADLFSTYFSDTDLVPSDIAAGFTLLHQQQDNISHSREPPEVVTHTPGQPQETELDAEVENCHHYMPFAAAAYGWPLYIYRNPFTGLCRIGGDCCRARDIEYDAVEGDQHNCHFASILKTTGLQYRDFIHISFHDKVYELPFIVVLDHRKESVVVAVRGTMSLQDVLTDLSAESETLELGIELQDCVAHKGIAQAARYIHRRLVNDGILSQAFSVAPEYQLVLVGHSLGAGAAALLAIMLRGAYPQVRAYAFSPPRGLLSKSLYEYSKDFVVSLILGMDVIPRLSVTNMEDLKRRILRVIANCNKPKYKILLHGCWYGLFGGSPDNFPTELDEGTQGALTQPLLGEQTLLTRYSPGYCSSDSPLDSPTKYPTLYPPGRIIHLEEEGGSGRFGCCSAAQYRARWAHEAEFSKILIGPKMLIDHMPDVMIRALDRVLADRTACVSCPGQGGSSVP
Sequence of Platelet-activating factor acetylhydrolase 2, cytoplasmic (Mus musculus) (Q8VDG7 whole entry, looked up): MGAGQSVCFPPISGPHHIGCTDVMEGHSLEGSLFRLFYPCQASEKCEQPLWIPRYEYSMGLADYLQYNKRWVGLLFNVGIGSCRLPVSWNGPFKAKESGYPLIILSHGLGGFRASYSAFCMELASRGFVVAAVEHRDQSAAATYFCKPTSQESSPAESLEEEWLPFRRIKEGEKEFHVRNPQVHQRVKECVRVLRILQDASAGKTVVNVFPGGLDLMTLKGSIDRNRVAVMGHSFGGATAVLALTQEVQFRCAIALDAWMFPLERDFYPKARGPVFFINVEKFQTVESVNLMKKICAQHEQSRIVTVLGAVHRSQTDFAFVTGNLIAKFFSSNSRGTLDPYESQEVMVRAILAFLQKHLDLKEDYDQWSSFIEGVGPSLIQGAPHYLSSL
Sequence of Palmitoyl-protein thioesterase ABHD10, mitochondrial (Mus musculus) (Q6PE15 whole entry, looked up): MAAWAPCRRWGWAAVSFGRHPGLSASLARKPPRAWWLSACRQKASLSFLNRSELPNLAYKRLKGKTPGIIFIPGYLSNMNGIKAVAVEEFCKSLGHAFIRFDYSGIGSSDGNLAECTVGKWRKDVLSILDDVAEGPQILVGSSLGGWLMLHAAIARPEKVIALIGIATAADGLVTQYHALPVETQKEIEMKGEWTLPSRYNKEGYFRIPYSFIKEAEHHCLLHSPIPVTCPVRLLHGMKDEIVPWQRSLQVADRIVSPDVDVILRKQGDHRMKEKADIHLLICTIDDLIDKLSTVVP
Sequence of Acyl-protein thioesterase 1 (Mus musculus) (P97823 whole entry, looked up): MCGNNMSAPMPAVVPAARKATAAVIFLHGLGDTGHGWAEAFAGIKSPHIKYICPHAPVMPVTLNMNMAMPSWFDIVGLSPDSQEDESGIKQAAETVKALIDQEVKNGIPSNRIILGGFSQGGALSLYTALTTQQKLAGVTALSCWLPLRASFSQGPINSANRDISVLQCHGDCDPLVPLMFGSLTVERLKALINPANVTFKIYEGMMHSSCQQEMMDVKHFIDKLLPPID
Sequence of Prolyl endopeptidase (Mus musculus) (Q9QUR6 whole entry, looked up): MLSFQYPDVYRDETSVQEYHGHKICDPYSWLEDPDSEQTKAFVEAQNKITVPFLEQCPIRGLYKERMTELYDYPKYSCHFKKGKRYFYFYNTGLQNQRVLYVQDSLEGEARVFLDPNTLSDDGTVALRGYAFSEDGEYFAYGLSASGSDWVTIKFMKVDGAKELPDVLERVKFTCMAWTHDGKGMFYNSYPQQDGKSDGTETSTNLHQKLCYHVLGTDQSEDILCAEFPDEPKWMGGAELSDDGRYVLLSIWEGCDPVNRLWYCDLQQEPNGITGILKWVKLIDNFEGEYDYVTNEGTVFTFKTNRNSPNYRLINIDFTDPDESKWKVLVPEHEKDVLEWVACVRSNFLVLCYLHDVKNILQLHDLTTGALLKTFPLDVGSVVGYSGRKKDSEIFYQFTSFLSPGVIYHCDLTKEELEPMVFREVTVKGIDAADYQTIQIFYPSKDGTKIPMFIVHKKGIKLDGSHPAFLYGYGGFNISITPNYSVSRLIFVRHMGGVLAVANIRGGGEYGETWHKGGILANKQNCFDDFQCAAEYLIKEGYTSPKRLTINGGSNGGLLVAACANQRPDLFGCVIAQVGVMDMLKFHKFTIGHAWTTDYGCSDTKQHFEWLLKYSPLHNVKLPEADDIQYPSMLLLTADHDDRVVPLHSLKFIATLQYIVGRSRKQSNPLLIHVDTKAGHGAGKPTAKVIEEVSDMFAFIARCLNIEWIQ
Sequence of Monoacylglycerol lipase ABHD6 (Mus musculus) (Q8R2Y0 whole entry, looked up): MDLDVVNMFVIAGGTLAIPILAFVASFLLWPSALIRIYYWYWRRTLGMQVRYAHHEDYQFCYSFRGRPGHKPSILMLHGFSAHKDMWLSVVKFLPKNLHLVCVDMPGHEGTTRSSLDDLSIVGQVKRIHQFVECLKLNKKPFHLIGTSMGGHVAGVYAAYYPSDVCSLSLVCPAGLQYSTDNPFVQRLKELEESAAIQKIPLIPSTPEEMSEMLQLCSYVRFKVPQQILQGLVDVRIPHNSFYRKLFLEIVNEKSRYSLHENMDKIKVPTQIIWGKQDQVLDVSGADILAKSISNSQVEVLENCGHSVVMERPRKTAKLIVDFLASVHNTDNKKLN
Sequence of Abhd4 (Q8VD66 whole entry, looked up): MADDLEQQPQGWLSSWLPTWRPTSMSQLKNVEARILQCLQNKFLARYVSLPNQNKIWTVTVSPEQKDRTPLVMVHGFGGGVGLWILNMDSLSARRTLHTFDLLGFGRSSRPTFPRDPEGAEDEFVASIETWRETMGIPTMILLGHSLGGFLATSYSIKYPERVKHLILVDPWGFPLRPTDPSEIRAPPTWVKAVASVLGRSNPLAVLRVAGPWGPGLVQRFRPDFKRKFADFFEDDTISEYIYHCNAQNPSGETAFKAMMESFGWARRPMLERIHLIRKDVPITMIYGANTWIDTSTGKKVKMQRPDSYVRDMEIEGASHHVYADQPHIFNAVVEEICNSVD

COc1ccccc1-c1ccc(-c2cn(C(=O)N3CCCCC3Cc3ccccc3)nn2)cc1 (stereo unspecified)
inactive: [1] 1.41 | [2] 1.15 | [3] 0.96 | [4] 1.39 | [5] 1.36 | [6] 0.93 | [7] 0.97 | [8] 1.33 | [9] 1.5 | [10] 1.19 | [11] 0.99 | [13] 1.19 | [14] 0.94 | [15] 1.13 | [16] 1.06 | [17] 1.16 | [18] 1.2 | [19] 1.1 | [20] 1.33 | [21] 1.06 | [22] 1.32 | [23] 1.17 | [24] 1.12 | [25] 1.86 | [26] 1.01 | [27] 0.97 | [28] 1.47 | [30] 1.03 | [31] 0.99 | [32] 1.02 | [33] 1.07 | [34] 0.98 | [35] 2.04 | [36] 1.08 | [37] 1.22 | [38] 1.43 | [39] 1.26 | [40] 1.37 | [41] 1 | [42] 1 | [43] 1.45 | [44] 1.46 | [45] 1.38 | [46] 0.83
active: [12] 0.11 | [29] 0.17
